System: AAR^CAp
Conditions: read-out: KM^AcAcCoA; NADH fixed at 300 µM; 50 mM Tris pH 8, 5 mM MgCl2, 5 mM NaCl; 30 °C

CC(=O)CC(=O)SCCNC(=O)CCNC(=O)[C@H](O)C(C)(C)COP(=O)(O)OP(=O)(O)OC[C@H]1O[C@@H](n2cnc3c(N)ncnc32)[C@H](O)[C@@H]1OP(=O)(O)O [acetoacetyl-CoA]
Km: 56.7 µM
